Measurements reported in ChEMBL document CHEMBL4732125, “Structures/cytotoxicity/selectivity relationship of natural steroidal saponins against GSCs and primary mechanism of tribulosaponin A” (Eur J Med Chem, 2021).
Activity calls are given as the source filed them. No cut-off for these calls is given here.

Assays:
[1] = Cytotoxicity against human GSC3 cells assessed as reduction in cell viability after 72 hrs by MTS assay; type: functional, cell-based; conditions: GSC-3, 72 h
[2] = Cytotoxicity against human GSC18 cells assessed as reduction in cell viability after 72 hrs by MTS assay; type: functional, cell-based, GSC-18; conditions: GSC18, 72 h
HEK-293T [3] = assay: Cytotoxicity against human 293T cells assessed as reduction in cell viability after 72 hrs by MTS assay; type: cell-based; conditions: Homo sapiens, HEK-293T
HUVEC [4] = assay: Cytotoxicity against HUVEC assessed as reduction in cell viability after 72 hrs by MTS assay; type: cell-based, Homo sapiens; conditions: Homo sapiens, HUVEC
T98G [5] = assay: Cytotoxicity against human T98G assessed as reduction in cell viability after 72 hrs by MTS assay; type: cell-based; conditions: Homo sapiens, T98G
U-87 MG [6] = assay: Cytotoxicity against human U-87 MG cells assessed as reduction in cell viability after 72 hrs by MTS assay; type: cell-based, U-87MG ATCC; conditions: Homo sapiens, U-87 MG
GSC-3 [7] = assay: Cytotoxicity against human GSC3 cells assessed as inhibition of cell growth at 20 uM after 5 days; type: functional, cell-based; conditions: time 5.0 day
GSC-18 [8] = assay: Cytotoxicity against human GSC18 cells assessed as inhibition of cell growth at 20 uM after 5 days; type: functional, cell-based; conditions: time 5.0 day
T98G [9] = assay: Cytotoxicity against human T98G cells assessed as inhibition of cell growth at 20 uM after 5 days; type: cell-based; conditions: 120 h, time 5 day
U-87 MG [10] = assay: Cytotoxicity against human U-87 MG cells assessed as inhibition of cell growth at 20 uM after 5 days; type: cell-based; conditions: u-87mg atcc, 120 h, time 5 day
HEK-293T [11] = assay: Cytotoxicity against human 293T cells assessed as inhibition of cell growth at 20 uM after 5 days; type: cell-based; conditions: 120 h, time 5 day
HUVEC [12] = assay: Cytotoxicity against HUVEC assessed as inhibition of cell growth at 20 uM after 5 days; type: cell-based; conditions: human, 120 h, time 5 day
GSC-3 [13] = assay: Inhibition of colony formation in human GSC-3 cells assessed as tumor spheres damage at 15 uM after 2 weeks by crystal violet staining based assay; type: functional, cell-based
GSC-18 [14] = assay: Inhibition of colony formation in human GSC-18 cells assessed as tumor spheres damage at 15 uM after 2 weeks by crystal violet staining based assay; type: functional, cell-based
GSC-3 [15] = assay: Inhibition of colony formation in human GSC-3 cells assessed as decrease in number of tumor spheres at 15 uM after 2 weeks by crystal violet staining based assay; type: functional, cell-based
GSC-18 [16] = assay: Inhibition of colony formation in human GSC-18 cells assessed as decrease in number of tumor spheres at 15 uM after 2 weeks by crystal violet staining based assay; type: functional, cell-based
T98G [17] = assay: Inhibition of colony formation in human […] cells assessed as tumor spheres damage at 15 uM by crystal violet staining based assay; type: functional, cell-based
T98G [18] = assay: Inhibition of colony formation in human […] cells assessed as decrease in number of tumor spheres at 15 uM by crystal violet staining based assay; type: functional, cell-based
U-87 MG [19] = assay: Inhibition of colony formation in human U-87 MG cells assessed as tumor spheres damage at 15 uM by crystal violet staining based assay; type: functional, cell-based; conditions: U-87MG ATCC
U-87 MG [20] = assay: Inhibition of colony formation in human U-87 MG cells assessed as decrease in number of tumor spheres at 15 uM by crystal violet staining based assay; type: functional, cell-based; conditions: U-87MG ATCC
GSC-3 [21] = assay: Antiproliferative activity against human GSC-3 cells assessed as inhibition of cell growth at 15 uM after 48 hrs by BrdU incorporation assay; type: functional, cell-based
GSC-18 [22] = assay: Antiproliferative activity against human GSC-18 cells assessed as inhibition of cell growth at 15 uM after 48 hrs by BrdU incorporation assay; type: functional, cell-based
GSC-3 [23] = assay: Induction of apoptosis in human GSC-3 cells assessed as cell shrank at 20 uM; type: functional, cell-based
GSC-3 [24] = assay: Induction of apoptosis in human GSC-3 cells assessed as appearance of round and detached cells at 20 uM; type: functional, cell-based
GSC-18 [25] = assay: Induction of apoptosis in human GSC-18 cells assessed as cell shrank at 20 uM; type: functional, cell-based
GSC-18 [26] = assay: Induction of apoptosis in human GSC-18 cells assessed as appearance of round and detached cells at 20 uM; type: functional, cell-based
[27] = Induction of apoptosis in human GSC-3 cells assessed as viable cells at 7.5 uM incubated for 36 hrs by Annexin V-FITC/PI staining based flow cytometric analysis (reference value: 83.8%); type: functional; conditions: read-out: Activity
[28] = Induction of apoptosis in human GSC-3 cells assessed as early apoptotic cells at 7.5 uM incubated for 36 hrs by Annexin V-FITC/PI staining based flow cytometric analysis (reference value: 6.99%); type: functional
[29] = Induction of apoptosis in human GSC-3 cells assessed as late apoptotic cells at 7.5 uM incubated for 36 hrs by Annexin V-FITC/PI staining based flow cytometric analysis (reference value: 7.79%); type: functional
[30] = Induction of apoptosis in human GSC-3 cells assessed as necrotic cells at 7.5 uM incubated for 36 hrs by Annexin V-FITC/PI staining based flow cytometric analysis (reference value: 1.42%); type: functional
[31] = Induction of apoptosis in human GSC-3 cells assessed as viable cells at 10 uM incubated for 36 hrs by Annexin V-FITC/PI staining based flow cytometric analysis (reference value: 83.8%); type: functional; conditions: read-out: Activity
[32] = Induction of apoptosis in human GSC-3 cells assessed as early apoptotic cells at 10 uM incubated for 36 hrs by Annexin V-FITC/PI staining based flow cytometric analysis (reference value: 6.99%); type: functional
[33] = Induction of apoptosis in human GSC-3 cells assessed as late apoptotic cells at 10 uM incubated for 36 hrs by Annexin V-FITC/PI staining based flow cytometric analysis (reference value: 7.79%); type: functional
[34] = Induction of apoptosis in human GSC-3 cells assessed as necrotic cells at 10 uM incubated for 36 hrs by Annexin V-FITC/PI staining based flow cytometric analysis (reference value: 1.42%); type: functional
[35] = Induction of apoptosis in human GSC-3 cells assessed as viable cells at 20 uM incubated for 36 hrs by Annexin V-FITC/PI staining based flow cytometric analysis (reference value: 83.8%); type: functional; conditions: read-out: Activity
[36] = Induction of apoptosis in human GSC-3 cells assessed as early apoptotic cells at 20 uM incubated for 36 hrs by Annexin V-FITC/PI staining based flow cytometric analysis (reference value: 6.99%); type: functional
[37] = Induction of apoptosis in human GSC-3 cells assessed as late apoptotic cells at 20 uM incubated for 36 hrs by Annexin V-FITC/PI staining based flow cytometric analysis (reference value: 7.79%); type: functional
[38] = Induction of apoptosis in human GSC-3 cells assessed as necrotic cells at 20 uM incubated for 36 hrs by Annexin V-FITC/PI staining based flow cytometric analysis (reference value: 1.42%); type: functional
GSC-3 [39] = assay: Induction of apoptosis in human GSC-3 cells assessed as increase in cleaved caspase 3 at 15 uM after 48 hrs by immunofluorescence assay; type: functional, cell-based
GSC-18 [40] = assay: Induction of apoptosis in human GSC-18 cells assessed as increase in cleaved caspase 3 at 15 uM after 48 hrs by immunofluorescence assay; type: functional, cell-based
GSC-3 [41] = assay: Induction of apoptosis in human GSC-3 cells assessed as accumulation of ROS by measuring increase in NOX1 expression at 15 uM after 48 hrs by transcriptome analysis; type: functional, cell-based
GSC-3 [42] = assay: Induction of apoptosis in human GSC-3 cells assessed as accumulation of ROS by measuring increase in NCF1 expression at 15 uM after 48 hrs by transcriptome analysis; type: functional, cell-based
HEK-293T [43] = assay: Induction of apoptosis in human 293T cells assessed as accumulation of ROS by measuring increase in NOX1 expression at 15 uM after 48 hrs by transcriptome analysis; type: functional, cell-based
HEK-293T [44] = assay: Induction of apoptosis in human 293T cells assessed as accumulation of ROS by measuring increase in NCF1 expression at 15 uM after 48 hrs by transcriptome analysis; type: functional, cell-based
GSC-3 [45] = assay: Induction of apoptosis in human GSC-3 cells assessed as ROS accumulation at 4 to 12 uM after 3 hrs in presence of NAC by DCFH-DA assay; type: functional, cell-based; conditions: dose 4-12 µM
GSC-18 [46] = assay: Induction of apoptosis in human GSC-18 cells assessed as ROS accumulation at 4 to 12 uM after 3 hrs in presence of NAC by DCFH-DA assay; type: functional, cell-based; conditions: dose 4-12 µM
GSC-3 [47] = assay: Induction of apoptosis in human GSC-3 cells assessed as reduction in Bcl-2 protein expression at 7.5 to 20 uM after 48 hrs by Western blotting analysis; type: functional, cell-based; conditions: dose 7.5-20 µM

## CC1=C(CC[C@H](C)CO[C@@H]2O[C@H](CO)[C@@H](O)[C@H](O)[C@H]2O)O[C@H]2C[C@H]3[C@@H]4CC[C@@H]5C[C@@H](O[C@@H]6O[C@H](CO)[C@@H](O[C@@H]7O[C@@H](C)[C@H](O)[C@@H](O)[C@H]7O)[C@H](O)[C@H]6O[C@@H]6O[C@@H](C)[C@H](O)[C@@H](O)[C@H]6O)CC[C@]5(C)[C@H]4CC[C@]3(C)[C@@H]12
[1]
  IC50: 7 µM
[2]
  IC50: 6.6 µM
HEK-293T [3]
  IC50: > 100 µM
HUVEC [4]
  IC50: > 100 µM
T98G [5]
  IC50: > 100 µM
U-87 MG [6]
  IC50: > 100 µM
GSC-3 [7]
  Activity: Active
GSC-18 [8]
  Activity: Active
T98G [9]
  Activity: Non-Toxic
U-87 MG [10]
  Activity: Non-Toxic
HEK-293T [11]
  Activity: Non-Toxic
HUVEC [12]
  Activity: Non-Toxic
GSC-3 [13]
  Activity: Active
GSC-18 [14]
  Activity: Active
GSC-3 [15]
  inhibition: Active
GSC-18 [16]
  inhibition: Active
T98G [17]
  inhibition: Active
T98G [18]
  inhibition: Active
U-87 MG [19]
  Activity: Active
U-87 MG [20]
  Activity: Active
GSC-3 [21]
  Activity: Active
GSC-18 [22]
  Activity: Active
GSC-3 [23]
  Activity: Active
GSC-3 [24]
  Activity: Active
GSC-18 [25]
  Activity: Active
GSC-18 [26]
  Activity: Active
[27]
  viability at 7.5 µM: 74.1%
[28]
  Activity: 19.4%
[29]
  Activity: 5.46%
[30]
  Activity: 1.01%
[31]
  viability at 10 µM: 60.4%
[32]
  Activity: 34.3%
[33]
  Activity: 4.67%
[34]
  Activity: 0.69%
[35]
  viability at 20 µM: 41.1%
[36]
  Activity: 53.3%
[37]
  Activity: 5.03%
[38]
  Activity: 0.56%
GSC-3 [39]
  Activity: Active
GSC-18 [40]
  Activity: Active
GSC-3 [41]
  Activity: Active
GSC-3 [42]
  Activity: Active
HEK-293T [43]
  Activity: inactive
HEK-293T [44]
  Activity: inactive
GSC-3 [45]
  Activity: inactive
GSC-18 [46]
  Activity: inactive
GSC-3 [47]
  Activity: Active
